Measured values as given in PMC10714400, “Antimicrobial Peptide–Peptoid Hybrids with and without Membrane Disruption” (ACS Infectious Diseases, 2023).

How the values were obtained:
P. aeruginosa PAO1 [1] = assay: Bacterial count after treatment, before TEM sample preparation; type: cell-based, Pseudomonas aeruginosa; settings: P. aeruginosa PAO1, […] MH pH 8.5, 10x MIC
Description: (§1) Just before the samples were further prepared for the microscopy, surviving bacteria were quantified by plating 10-fold dilutions of samples in sterilized normal saline (NaCl 0.9%) on LB agar plates. […] The assay was performed in triplicate. Each bacteria sample was centrifuged at 12,000 rpm for 3 min, and the supernatant was discarded. The samples were then further processed and imaged using our previously described protocol.[64]
8. Transmission electron microscopy (TEM)
Table S4: Bacterial counts, 2 hours after treatment, before TEM sample preparation. Data represents triplicates.
Bacteria count after treatment at 10x MIC and 2 h of incubation at 37 °C
Control (non-treated cells) 1 × 10^8 CFU (100)

P. aeruginosa PAO1 [2] = tested on: P. aeruginosa PAO1
How it was run: (§2)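 Using MTT as a visual viability dye, MICs were scored as the lowest concentration with no visible growth. Prior to staining, ~5 × 10^5 CFU per well grew in MH medium for ca. 18 h at 37 °C under static conditions.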

K. pneumoniae OXA-48 = settings: Table S3; […] MH at pH 8.5
How it was run: as §2

[3] = tested on: ZEM-1A (clinical MDR P. aeruginosa isolate); settings: Table S3; […] MH at pH 8.5
How it was run: as §2

[4] = tested on: ZEM9A (clinical MDR P. aeruginosa isolate); settings: Table S3; […] MH at pH 8.5
How it was run: as §2

PA14 4.18 (pmrB) = settings: diluted MH ([…] MH) at pH 8.5 (Table 2 footnote b)
How it was run: as §2

PA14 2P4 (pmrB) = settings: diluted MH ([…] MH) at pH 8.5 (Table 2 footnote b)
How it was run: as §2

K. pneumoniae NCTC418 = tested on: K. pneumoniae NCTC418
How it was run: (§3)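 MTT added (20–30 min, room temperature); MIC read by eye as lowest concentration inhibiting visible growth (yellow). Polymyxin B positive control from 16 μg/mL.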

A. baumannii ATCC19606 = tested on: A. baumannii ATCC19606
How it was run: as §3

E. coli W3110 = tested on: E. coli W3110
How it was run: as §2

PA14 4.13 (phoQ) = settings: diluted MH ([…] MH) at pH 8.5 (Table 2 footnote b)
How it was run: as §2

E. cloacae = settings: Table S3; […] MH at pH 8.5
How it was run: as §2

S. aureus COL (MRSA) = settings: Table S2
How it was run: as §2

B. cenocepacia = settings: 4 h, pH 8.5
Description: (§4) Antimicrobial activity was assayed for all the peptide–peptoids against P. aeruginosa PAO1, K. pneumoniae NCTC418, E. coli W3110, A. baumannii ATCC 19606, methicillin-resistant S. aureus COL (MRSA), and for selected peptides on P. aeruginosa PA14 and the polymyxin-B-resistant derivatives PA14 4.13, PA14 4.18, PA14 2P4, as well as the clinical isolates ZEM-1A and ZEM9A, K. pneumoniae OXA-48, S. aureus Newman, Enterobacter cloacae, Stenotrophomonas maltophilia, Burkholderia cenocepacia, and Staphylococus epidermidis. To determine the Minimal Inhibitory Concentration (MIC), the Broth Microdilution method was used.[72] A colony of bacteria was picked and grown in LB medium overnight at 37 °C.
(§5) To each well was finally added 4 μL of the diluted bacterial suspension (see above), corresponding to approximately 5 × 10^5 CFU. For each test, two columns of the plate were kept for sterility control (medium only), growth control (medium with bacterial inoculum, no compound). The positive control, Polymyxin B (starting with a concentration of 16 μg/mL) in MH medium with bacterial inocula, was introduced in the two lines of the plate. […] Next, 15 μL of 3-(4,5-dimethylthiazol-2-yl)-2,5-diphenyltetrazolium bromide (MTT)[73] (1 mg/mL in sterilized MilliQ deionized water) were added to each well, and the plates were incubated for 20–30 min at room temperature. The minimal inhibitory concentration (MIC) was defined as the lowest concentration of the compound that inhibits the visible growth of the tested bacteria (yellow) with the unaided eye.

S. aureus Newman = settings: Table S3; […] MH at pH 8.5
Description: as §4, §5

S. epidermis = settings: Table S3; […] MH at pH 8.5
Description: as §4, §5

P. aeruginosa PA14 = settings: Table S3; […] MH at pH 8.5, 16-20 hours at 37 °C
Description: as §4, §5

S. maltophilia = settings: Table S3; […] MH at pH 8.5
Description: as §4, §5

[5] = Circular dichroism, α-helical content; type: physicochemical; settings: 0.1 mg/mL; for CD %α with 5 mM DPC: 10 mM phosphate buffer pH 7.4, 5 mM DPC; for CD %α with 20% TFE: 10 mM phosphate buffer pH 7.4, 20% TFE
P. aeruginosa PAO1 [6] = assay: Transmission electron microscopy (TEM); type: cell-based, Pseudomonas aeruginosa; settings: P. aeruginosa PAO1, 10 × MIC, […] MH at pH 8.5, 2 h at 37 °C
Description: Scale bars are 500 nm and 1 μm. Red arrows: membrane perturbations. Blue arrows: intracellular aggregation. Yellow arrows: empty area within the cell.
as §1

With “H-VDKPPYLPRPRPPRRIYNR-NH2 [Onc, reference compound]” the “Bacteria count after treatment at 10x MIC and 2 h of incubation at 37 °C (% of control)” value (P. aeruginosa PAO1 [1]) was 0.01 % of control, the “Antibacterial activity as a function of NaCl concentration” value (P. aeruginosa PAO1 [2]; P. aeruginosa PAO1, […] MH at pH 8.5, up to 300 mM NaCl) was “strongly reduced” and the “MIC P. aeruginosa PAO1 […] 7.4” value (P. aeruginosa PAO1 [2]; Table S2, […] MH, pH 7.4) was 32 µg/mL. For the same substance, the “MIC P. aeruginosa PAO1 Full MH 7.4” value (P. aeruginosa PAO1 [2]; Table S2, full MH, pH 7.4) was greater than 32 µg/mL, the “MIC P. aeruginosa PAO1 Full MH 8.5” value (P. aeruginosa PAO1 [2]; Table S2, full MH, pH 8.5) was greater than 32 µg/mL and the “MIC K. pneumoniae OXA-48” value (K. pneumoniae OXA-48) was 1 µg/mL. For the same substance, the “MIC P. aeruginosa ZEM-1A” value [3] was 2 µg/mL, the “MIC P. aeruginosa ZEM9A” value [4] was 16 µg/mL and the “MIC PA14 4.18 (pmrB)” value (PA14 4.18 (pmrB)) was 2 µg/mL. For the same substance, the “MIC PA14 2P4 (pmrB)” value (PA14 2P4 (pmrB)) was 2 µg/mL, the “MIC K. pneumoniae NCTC418 […] 7.4” value (K. pneumoniae NCTC418; Table S2, […] MH, pH 7.4) was 1 µg/mL and the “MIC K. pneumoniae NCTC418 […] 8.5” value (K. pneumoniae NCTC418; Table S2, […] MH, pH 8.5) was 1 µg/mL. The “MIC K. pneumoniae NCTC418 Full MH 7.4” value (K. pneumoniae NCTC418; Table S2, full MH, pH 7.4) was 4 µg/mL, the “MIC K. pneumoniae NCTC418 Full MH 8.5” value (K. pneumoniae NCTC418; Table S2, full MH, pH 8.5) was 4 µg/mL and the “Activity increase in dilute medium” value (K. pneumoniae NCTC418; […] MH vs full MH, K. pneumoniae) was 4 fold. The “MIC A. baumannii ATCC19606 Full MH 8.5” value (A. baumannii ATCC19606; ATCC19606, 4 h, pH 8.5) was 8 µg/mL, the “MIC A. baumannii ATCC19606 […] 7.4” value (A. baumannii ATCC19606; Table S2, […] MH, pH 7.4) was 4 µg/mL and the “MIC A. baumannii ATCC19606 […] 8.5” value (A. baumannii ATCC19606; Table S2, […] MH, pH 8.5) was 4 µg/mL. The “MIC A. baumannii ATCC19606 Full MH 7.4” value (A. baumannii ATCC19606; Table S2, full MH, pH 7.4) was 32 µg/mL, the “Activity increase in dilute medium” value (A. baumannii ATCC19606; […] MH vs full MH, A. baumannii) was 4 fold and the “Antibacterial activity as a function of NaCl concentration” value (E. coli W3110; E. coli W3110, […] MH at pH 8.5, up to 300 mM NaCl) was “strongly reduced”. The “MIC E. coli W3110 […] 7.4” value (E. coli W3110; Table S2, […] MH, pH 7.4) was 1 µg/mL, the “MIC E. coli W3110 […] 8.5” value (E. coli W3110; Table S2, […] MH, pH 8.5) was 1 µg/mL and the “MIC E. coli W3110 Full MH 7.4” value (E. coli W3110; Table S2, full MH, pH 7.4) was 4 µg/mL. For the same substance, the “MIC E. coli W3110 Full MH 8.5” value (E. coli W3110; Table S2, full MH, pH 8.5) was 1 µg/mL, the “Activity increase in dilute medium” value (E. coli W3110; […] MH vs full MH, E. coli) was 4 fold and the “MIC PA14 4.13 (phoQ)” value (PA14 4.13 (phoQ)) was 2 µg/mL. The “MIC E. cloacae” value (E. cloacae) was 2 µg/mL, the “MIC S. aureus COL (MRSA) […] 7.4” value (S. aureus COL (MRSA); […] MH, pH 7.4) was 32 µg/mL and the “MIC S. aureus COL (MRSA) Full MH 7.4” value (S. aureus COL (MRSA); full MH, pH 7.4) was greater than 32 µg/mL. For the same substance, the “MIC S. aureus COL (MRSA) Full MH 8.5” value (S. aureus COL (MRSA); full MH, pH 8.5) was greater than 32 µg/mL, the “MIC B. cenocepacia” value (B. cenocepacia) was 32 µg/mL and the “MIC S. aureus Newman” value (S. aureus Newman) was 1 µg/mL. The “MIC S. epidermis” value (S. epidermis) was 4 µg/mL, the “MIC P. aeruginosa PA14” value (P. aeruginosa PA14) was 2 µg/mL and the “MIC S. maltophilia” value (S. maltophilia) was greater than 32 µg/mL. For the same substance, the “CD %α with 5 mM DPC” value ([5]; DichroWeb, Contin-LL) was 20%, the “CD %α with 20% TFE” value ([5]; DichroWeb, Contin-LL) was 23% and the “CD %α with 5 mM DPC” value ([5]; Table S2) was 20%. The “CD %α with 20% TFE” value ([5]; Table S2) was 23% and the “TEM micrographs, changes in treated bacteria” value (P. aeruginosa PAO1 [6]) was “aggregation of intracellular components”.
